According to US5804402A, “Reagent” (priority 1995, dated 1998):

Molecular target: T1, L-alanine dehydrogenase (A.D) (Bacillus subtilis, UniProt Q08352)
T1 sequence (Q08352 1-378): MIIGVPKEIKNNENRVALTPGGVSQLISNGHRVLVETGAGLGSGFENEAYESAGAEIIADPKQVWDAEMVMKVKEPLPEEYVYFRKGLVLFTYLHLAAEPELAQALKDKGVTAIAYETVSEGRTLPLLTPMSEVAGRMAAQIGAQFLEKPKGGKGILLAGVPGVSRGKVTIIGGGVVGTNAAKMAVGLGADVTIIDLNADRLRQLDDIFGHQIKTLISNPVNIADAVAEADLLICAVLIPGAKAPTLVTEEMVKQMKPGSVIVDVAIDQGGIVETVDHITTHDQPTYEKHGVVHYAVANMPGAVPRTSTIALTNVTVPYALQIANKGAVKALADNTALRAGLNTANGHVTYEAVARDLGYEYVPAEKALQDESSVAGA
Assay: Relative activity of substrate with L-alanine dehydrogenase
Type: biochemical
Conditions: relative to L-alanine (100%)
Text: If L-alanine dehydrogenase (A.D) is used as the enzyme in a reaction system similar to that used for leucine dehydrogenase, a suitable substrate and its activity relative to L-alanine (100%) is […]

- Relative Activity: 5%
Structure (SMILES): N[C@@H](CO)C(=O)O [L-serine]
